Data: US10507211B2, “Treatment for hereditary neuropathy with liability to pressure palsies (HNPP)” (Vanderbilt University, priority 2016, dated 2019)
Marks after values point to notes of the source that are not given here.

Columns and labels:
PAK1 [1] = target: T1, PAK1 (Mus musculus, UniProt O88643); experiment: Western blot of phosphorylated PAK1 (T212) in sciatic nerves of treated Pmp22+/− mice; settings: 0.25 mg/kg/day I.P., n = 8
Target sequence in this assay (O88643 whole entry): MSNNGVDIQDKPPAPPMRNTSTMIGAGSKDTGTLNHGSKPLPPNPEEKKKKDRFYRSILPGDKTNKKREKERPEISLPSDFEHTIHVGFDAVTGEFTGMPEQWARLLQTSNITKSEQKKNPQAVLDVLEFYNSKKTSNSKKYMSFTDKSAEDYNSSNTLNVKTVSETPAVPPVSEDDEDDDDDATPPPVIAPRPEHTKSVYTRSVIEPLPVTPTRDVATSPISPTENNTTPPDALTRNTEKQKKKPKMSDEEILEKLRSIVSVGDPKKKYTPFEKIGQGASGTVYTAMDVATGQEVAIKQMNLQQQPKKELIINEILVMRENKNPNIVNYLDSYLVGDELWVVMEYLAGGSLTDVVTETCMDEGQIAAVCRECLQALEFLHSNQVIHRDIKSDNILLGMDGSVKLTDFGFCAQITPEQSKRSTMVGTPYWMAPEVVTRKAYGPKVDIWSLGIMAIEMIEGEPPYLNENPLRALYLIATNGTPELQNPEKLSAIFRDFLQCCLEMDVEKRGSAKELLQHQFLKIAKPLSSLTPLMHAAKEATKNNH
Experimental: The specificity of total PAK1, S144, and T212 antibodies was verified using Pak1+/+ and Pak1−/− nerves.
(§2) Injection started at age of postnatal day 7. […] Using teased nerve fibers, the percentages of nerve fibers with tomacula, a key pathology of HNPP, was quantified, as described [8].
Samples were homogenized for protein isolation. […] Samples were loaded into SDS-PAGE gels and transferred to a PVDF membrane. The membranes were blotted with 5% non-fat milk and incubated overnight at 4° C. with primary antibodies, and followed by secondary antibodies. The immune complexes were detected by the enhanced chemoilluminescence (Cat# NEL103001, Perkin Elmer). In some cases, the blots were stripped and re-probed with additional antibodies. Quantification of band intensity was performed by the ImageJ software (rsbweb.nih.gov/ij/).

F-actin = F-actin staining of teased nerve fibers with fluorescent phalloidin in treated Pmp22+/− mice; type: in vivo, mouse; settings: versus vehicle
Experimental: This method was modified from the published study. In brief, sciatic nerves were fixed, embedded in paraffin, and cut into 5 μm-thick slices. Sections were incubated overnight with primary antibodies at 4° C. After washing, sections were stained for 1 hour with secondary antibodies. The stained slides were examined under a Leica fluorescent microscope (Leica DM6000B). For teased nerve stains, sciatic nerves were fixed in 4% paraformaldehyde (PFA) overnight and teased into individual fibers on glass slides. […] For newly formed F-actin staining, as described, the existing F-actin in sciatic nerve explants was saturated with a cell-permeable actin-binding compound, jasplakinolide (Cat#420127, Millipore), at 1 μM in culture media. After washing with PBS, the explants were incubated in a drug-free media for 6 hours at 37° C. The explants were fixed in 4% PFA and teased for F-actin staining using fluorescent phalloidin (1:400, Cat# R415, Life Technologies).

Pmp22+/− mice [2] = experiment: Evaluation of myelin permeability with 3 kDa Dextran in sciatic nerve fascicles of treated Pmp22+/− mice; settings: 3-month-old Pmp22+/− mice; 0.25 mg/kg; versus vehicle; P<0.001
Experimental: With reference to Panel E of FIG. 7, sciatic nerve fascicles from 3-month-old Pmp22+/− mice were incubated with 3 kDa Dextran, as described [3], to evaluate the myelin permeability. Individual teased nerve fibers were imaged. Arrowheads point to the node of Ranvier. […] With reference to Panel F of FIG. 7, fluorescence intensity was quantified by placing a 2.5 μm×2.5 μm interest box 10 μm away from the middle point of the node of Ranvier.
In brief, 1 cm sciatic nerve fascicles were submerged in artificial CSF after epineurium removal and sealed at both ends with Vaseline. A 3 kDa Dextran of fluorescence (2 mg/ml, Cat# D3329, Life technologies) was added for one hour incubation at room temperature without oxygenation. After washing, the nerve fascicles were fixed in 4% PFA for 10 minutes and teased into individual nerve fibers on glass slides for fluorescence microscopy. Fluorescence intensity was quantified by placing a 5 μm×5 μm interest box 10 μm away from the middle point of the node of Ranvier.

Pmp22+/− mice [3] = experiment: Percentage of teased nerve fibers with tomacula in treated Pmp22+/− mice; settings: 0.25 mg/kg/day I.P.
Source text: as §2
Another 14 Pmp22+/− mice (un-injected) were counted.

Pmp22+/− mice [4] = experiment: Mouse tolerance to PF3758309 (i.p. daily); type: in vivo
Source text: Pmp22+/− mice were backcrossed with C57Bl6J mice (Jackson Lab) for more than 10 generations to reach congenic. Mice were genotyped as described. The congenic Pmp22+/− mice have been extensively characterized.
For PAK1 inhibitor (PF3758309) injections, Pmp22+/− mice were randomized into vehicle and treated groups. Based on the power calculation of variations derived from mouse compound nerve action potentials, 7 mice for each group would have a 92% chance to detect a significant difference. PF-3758309 (Cat# CT-PF0375, ChemieTek) was dissolved in normal saline for intraperitoneal injection (i.p.) daily.

MEK1 = experiment: Western blot of phosphorylated MEK1 (S298) in sciatic nerves of treated Pmp22+/− mice; type: in vivo, mouse; settings: 1 week old at start of injection; 0.25 mg/kg/day I.P.; 11 weeks; n = 8
Source text: Residues in other PAKs could be phosphorylated but cannot be substantiated due to the lack of specific antibodies.
Samples were homogenized for protein isolation.

PAK2 = target: T2, PAK2 (Mus musculus, UniProt Q8CIN4); experiment: Phosphorylated PAK2 (S20) in primary Schwann cell culture; type: cell-based; settings: Schwann cells; 9 μM for 12 hour
T2 construct: Pak1+/+ and Pak1−/− primary Schwann cell culture; endogenous in cells; host or cells: primary Schwann cells, Pak1+/+ and Pak1-/-
T2 sequence (Q8CIN4 whole entry): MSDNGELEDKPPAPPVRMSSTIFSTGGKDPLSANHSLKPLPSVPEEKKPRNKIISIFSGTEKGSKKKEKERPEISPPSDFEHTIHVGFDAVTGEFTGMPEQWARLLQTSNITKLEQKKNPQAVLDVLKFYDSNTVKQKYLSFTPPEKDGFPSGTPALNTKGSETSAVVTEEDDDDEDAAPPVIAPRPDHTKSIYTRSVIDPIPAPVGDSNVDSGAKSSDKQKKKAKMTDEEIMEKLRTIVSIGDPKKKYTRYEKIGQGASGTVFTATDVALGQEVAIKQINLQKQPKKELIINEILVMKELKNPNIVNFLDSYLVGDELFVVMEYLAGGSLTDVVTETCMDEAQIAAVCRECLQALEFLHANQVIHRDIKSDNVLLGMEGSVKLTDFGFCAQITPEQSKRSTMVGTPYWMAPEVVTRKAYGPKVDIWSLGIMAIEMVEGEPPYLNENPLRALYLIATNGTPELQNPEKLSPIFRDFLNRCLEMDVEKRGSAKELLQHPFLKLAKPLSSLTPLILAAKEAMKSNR
Source text: (§1) FIG. 8. […] The total actin and GAPDH were used as loading controls.

PAK1 [5] = target: T1, PAK1; experiment: F-actin and phosphorylated PAK1 in Pak1+/+ and Pak1−/− primary Schwann cell culture; type: cell-based; parameters: Pak1+/+ and Pak1−/− primary Schwann cell culture; endogenous in cells; host or cells: primary Schwann cells, Pak1+/+ and Pak1-/-; settings: Pak1+/+ Schwann cells; 9 μM for 12 hour
Source text: as §1
Target sequence in this assay (O88643 2-545): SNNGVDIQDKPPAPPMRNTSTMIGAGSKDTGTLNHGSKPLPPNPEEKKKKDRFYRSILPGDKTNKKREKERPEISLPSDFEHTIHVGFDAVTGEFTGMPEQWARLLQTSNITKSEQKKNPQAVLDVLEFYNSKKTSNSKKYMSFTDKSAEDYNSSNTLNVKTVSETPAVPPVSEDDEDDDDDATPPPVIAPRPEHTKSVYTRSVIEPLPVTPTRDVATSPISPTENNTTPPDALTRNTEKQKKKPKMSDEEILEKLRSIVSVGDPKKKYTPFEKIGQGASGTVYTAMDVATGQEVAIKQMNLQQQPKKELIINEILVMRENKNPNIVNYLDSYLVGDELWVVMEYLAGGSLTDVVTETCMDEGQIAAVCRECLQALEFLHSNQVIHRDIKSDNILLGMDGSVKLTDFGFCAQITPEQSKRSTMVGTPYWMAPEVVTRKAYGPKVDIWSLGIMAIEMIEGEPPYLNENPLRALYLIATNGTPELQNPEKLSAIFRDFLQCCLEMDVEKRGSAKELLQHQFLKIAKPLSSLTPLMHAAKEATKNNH

PAK1 [6] = experiment: as above; type: cell-based; settings: Pak1−/− Schwann cells; 9 μM for 12 hour
Source text: as §1

Pmp22+/− mice [7] = experiment: Nerve conduction study (NCS) on sciatic nerves of treated Pmp22+/− mice; settings: for CV(m/s): 0.25 mg/kg/day I.P., n = 8
Experimental: (§3) Thus, Pmp22+/− mice were treated with 0.25, 0.5, 1.0 mg/kg PF3758309 or vehicle—saline (FIG. 7 and Table 1). […] Injection started at age of postnatal day 7.
In FIG. 7, Panel B, CMAP amplitudes were measured prior to the treatment.
NCS was previously described [8]. […] A skilled technician gets NCS done in each mouse within 6 minutes. […] CMAP was recorded from the intrinsic foot muscle using needle electrodes. Stimulation electrodes were positioned percutaneously at the sciatic notch and adjacent to the tibial nerve at the ankle. CMAP amplitudes were measured from baseline to the peak of negative deflection.

[8] = reference [23]; cited from earlier work
claudin-19 = experiment: Abnormal claudin-19 staining of paranodes and incisures (tight junctions) in treated Pmp22+/− mice; settings: 0.25 mg/kg/day I.P., n = 8
Source text: Paraffin sections of mouse sciatic nerves were stained with antibodies. Percentages of abnormal paranodes or incisures were manually counted [3]. An abnormal paranode or incisurae was defined as the staining was absent in more than a half of normally stained paranodal or incisure territory. […] White dots outline the margin of the nerve fiber, based on its phase-contrast image. […] As shown in Panel E of FIG. 2, teased sciatic nerve fibers of Pmp22+/+ mice at the 3 months of age were stained with antibodies against claudin-19 to show paranodes (quadrant E1) and incisures (arrowhead in quadrant E3).
as §3
In brief, sciatic nerves were fixed, embedded in paraffin, and cut into 5 μm-thick slices. Sections were incubated overnight with primary antibodies at 4° C. After washing, sections were stained for 1 hour with secondary antibodies. The stained slides were examined under a Leica fluorescent microscope (Leica DM6000B). For teased nerve stains, sciatic nerves were fixed in 4% paraformaldehyde (PFA) overnight and teased into individual fibers on glass slides. The slides were dried overnight, reacted with primary antibodies, and followed by secondary antibodies.

[9] = 1 week old at start of injection, 11 weeks
[10] = 6-11 month age at start of injection, 4 weeks

Cc1nc(Nc2n[nH]c3c2CN(C(=O)N[C@H](CN(C)C)c2ccccc2)C3(C)C)c2sccc2n1 [PF-3758309]
Ratio (T212/PAK1) (PAK1 [1]; [9]): 0.61 ± 0.0
Ratio (T212/PAK1) (PAK1 [1]; [10]): 0.26 ± 0.1
levels of F-actin (F-actin; 0.25 mg/kg i.p. daily for 11 weeks, 3-month-old Pmp22+/− mice): suppressed
F-actin levels (F-actin; mice enrolled at 6-11 months, 0.25 mg/kg): significantly lower
3 kDa Dextran fluorescence intensity (myelin permeability) (Pmp22+/− mice [2]): significantly decreased
% Tomacula (Pmp22+/− mice [3]; 1 week old at start of injection, 11 weeks, n = 8): 27.3 ± 4.5%
% Tomacula +outlier (Pmp22+/− mice [3]; 6-11 month age at start of injection, 4 weeks, outlier included): 25.2 ± 7.5%
% Tomacula −outlier (Pmp22+/− mice [3]; 6-11 month age at start of injection, 4 weeks, outlier taken off): 22.8 ± 4.3 ^d %
mortality and side-effect (Pmp22+/− mice [4]; 0.25 mg/kg, treated for 11 weeks): no increase of mouse mortality and observable side-effect
mice killed (Pmp22+/− mice [4]; 2.5 mg/kg or 25 mg/kg i.p. daily, 20 Pmp22+/− mice, within 15 days): over 50%
body weight (Pmp22+/− mice [4]; 2.5 mg/kg or 25 mg/kg i.p. daily, within 15 days): drastic reduction of body weight
tolerance (body weight, death) (Pmp22+/− mice [4]; 0.25, 0.5, 1.0 mg/kg i.p. daily, 11 weeks): tolerated these doses well with no change of body weight or increase of death
Ratio (S298/MEK1) (MEK1): 0.39 ± 0.2
level of phosphorylated PAK2 (S20) (PAK2): inhibited
total PAK2 levels (PAK2): not altered
F-actin level (PAK1 [5]): hardly detectable
level of phosphorylated PAK1 (S144) (PAK1 [5]): suppressed
level of phosphorylated PAK1 (T212) (PAK1 [5]): suppressed
F-actin level (PAK1 [6]): failed to change
CMAP amplitude (Pmp22+/− mice [7]; 1.00 mg/kg i.p. daily for 11 weeks from postnatal day 7, eight 3-month-old Pmp22+/− mice (Pmp22+/+ 3.2±0.6 mV)): 1.5±0.8 mV
decline of CMAP amplitudes (Pmp22+/− mice [7]; 0.25, 0.5, 1.0 mg/kg i.p. daily for 11 weeks from postnatal day 7, versus vehicle): prevented the decline of CMAP amplitudes with all three dosages
CV(m/s) (Pmp22+/− mice [7]; [9]): 17.8 ± 3.0 m/s
CV(m/s) (Pmp22+/− mice [7]; [10]): 19.7 ± 11.1 m/s
decrease of CMAP amplitudes over the course of treatment (Pmp22+/− mice [7]; mice enrolled at 6-11 months, 0.25 mg/kg, vehicle fell from 1.6±0.7 mV to 0.7±0.2 mV): completely prevented
penetration into the nervous system [8]: penetrated into the nervous system
% abnormal Claudin-19 (incisures) (claudin-19; incisures, 1 week old at start of injection, 11 weeks): 27.7 ± 4.6 ^b %
% abnormal Claudin-19 (paranodes) (claudin-19; [9]): 36.5 ± 18.4 ^a %
% abnormal Claudin-19 (paranodes) (claudin-19; [10]): 43.5 ± 13.3 ^a %
